Assays:
ovine COX-2 = molecular target: T1, ovine COX-2 (Ovis aries, UniProt P79208); assay: colorimetric peroxidase assay, TMPD oxidation at […] nm (Cayman kit); type: biochemical; details: read-out: IC50 (μM) vs. COX / COX-1
T1 construct: gene PTGS2
T1 sequence (P79208 17-603): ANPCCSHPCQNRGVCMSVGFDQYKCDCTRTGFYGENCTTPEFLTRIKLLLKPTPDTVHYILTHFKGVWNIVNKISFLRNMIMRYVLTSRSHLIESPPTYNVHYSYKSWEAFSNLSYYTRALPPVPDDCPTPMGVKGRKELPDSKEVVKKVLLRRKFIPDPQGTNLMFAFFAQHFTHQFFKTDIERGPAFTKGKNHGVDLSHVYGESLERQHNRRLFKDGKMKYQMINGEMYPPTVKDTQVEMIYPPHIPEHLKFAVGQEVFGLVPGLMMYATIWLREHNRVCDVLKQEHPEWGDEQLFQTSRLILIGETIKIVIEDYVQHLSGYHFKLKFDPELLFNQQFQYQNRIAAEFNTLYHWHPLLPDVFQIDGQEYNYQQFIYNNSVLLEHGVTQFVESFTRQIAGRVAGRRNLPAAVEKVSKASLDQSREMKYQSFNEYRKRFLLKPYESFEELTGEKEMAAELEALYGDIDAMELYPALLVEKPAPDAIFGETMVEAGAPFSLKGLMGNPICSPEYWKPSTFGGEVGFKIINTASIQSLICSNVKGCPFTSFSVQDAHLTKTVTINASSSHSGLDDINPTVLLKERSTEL

ovine COX-1 = molecular target: T2, ovine COX-1 (Ovis aries, UniProt P05979); assay: as above; type: biochemical
T2 construct: gene PTGS1
T2 sequence (P05979 25-600): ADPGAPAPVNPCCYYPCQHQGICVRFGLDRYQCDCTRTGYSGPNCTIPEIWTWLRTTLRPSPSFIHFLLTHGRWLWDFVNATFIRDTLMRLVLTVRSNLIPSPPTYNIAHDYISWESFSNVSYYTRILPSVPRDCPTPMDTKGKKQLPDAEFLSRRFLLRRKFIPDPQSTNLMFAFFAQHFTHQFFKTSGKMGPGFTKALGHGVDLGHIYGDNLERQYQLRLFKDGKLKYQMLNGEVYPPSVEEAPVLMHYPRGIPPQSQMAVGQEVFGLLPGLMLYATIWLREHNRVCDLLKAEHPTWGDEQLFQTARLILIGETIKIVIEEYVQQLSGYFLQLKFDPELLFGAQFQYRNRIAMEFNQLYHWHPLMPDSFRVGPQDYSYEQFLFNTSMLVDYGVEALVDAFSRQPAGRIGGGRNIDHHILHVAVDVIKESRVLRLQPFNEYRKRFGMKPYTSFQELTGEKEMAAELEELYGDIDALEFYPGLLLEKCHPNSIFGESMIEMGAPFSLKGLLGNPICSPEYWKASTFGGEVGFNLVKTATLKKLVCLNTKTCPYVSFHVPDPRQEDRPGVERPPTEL

## COc1ccc2cc1Oc1ccc(cc1)C[C@H]1c3cc(c(OC)cc3CCN1C)Oc1c(OC)c(OC)cc3c1[C@H](C2)N(C)CC3 [compound 1, (+)-tetrandrine]
Ovine COX-2
  IC50: > 100 µM
Ovine COX-1
  IC50: > 100 µM
